Like-named read-outs stand apart in the source and are kept apart here.
Key:
human orexin-2 receptor = target: T1, human orexin-2 receptor (Homo sapiens, UniProt O43614); experiment: FLIPR Ca2+ flux assay, OX2R; assay type: cell-based; conditions: for Fold Selective: OX2R over OX1R, from FLIPR values
T1 construct: expressed in transfected cells; host or cells: CHO cells (grown under G418 selection)
T1 sequence (O43614 1-444): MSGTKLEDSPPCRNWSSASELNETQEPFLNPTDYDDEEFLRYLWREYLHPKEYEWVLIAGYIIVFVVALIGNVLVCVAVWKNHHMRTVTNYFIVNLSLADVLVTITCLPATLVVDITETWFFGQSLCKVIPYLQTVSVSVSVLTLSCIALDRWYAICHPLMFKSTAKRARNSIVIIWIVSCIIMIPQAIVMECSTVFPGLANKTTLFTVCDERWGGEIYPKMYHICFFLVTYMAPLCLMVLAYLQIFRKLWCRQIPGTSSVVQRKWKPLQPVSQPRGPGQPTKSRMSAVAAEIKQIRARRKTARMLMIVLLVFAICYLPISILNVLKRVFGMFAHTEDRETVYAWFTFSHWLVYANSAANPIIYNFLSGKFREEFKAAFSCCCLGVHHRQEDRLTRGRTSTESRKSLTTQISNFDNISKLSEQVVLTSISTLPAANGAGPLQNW
Protocol: (§1) For intracellular calcium measurements, Chinese hamster ovary (CHO) cells expressing the rat orexin-1 receptor or the human orexin-2 receptor, are grown in Iscove's modified DMEM containing 2 mM L-glutamine, […], 1% hypoxanthine-thymidine supplement, 100 U/ml penicillin, 100 μg/ml streptomycin and 10% heat-inactivated fetal calf serum (FCS). The cells are seeded at 20,000 cells/well into Becton-Dickinson black 384-well clear bottom sterile plates coated with poly-D-lysine. All reagents were from GIBCO-Invitrogen Corp. The seeded plates are incubated overnight at 37° C. and 5% CO2. Ala-6,12 human orexin-A as the agonist is prepared as a 1 mM stock solution in 1% bovine serum albumin (BSA) and diluted in assay buffer (HBSS containing 20 mM HEPES, 0.1% BSA and 2.5 mM probenecid, pH7.4) for use in the assay at a final concentration of 70 pM. Test compounds are prepared as 10 mM stock solution in DMSO, then diluted in 384-well plates, first in DMSO, then assay buffer. On the day of the assay, cells are washed 3 times with 100 μl assay buffer and then incubated for 60 min (37° C., 5% CO2) in 60 μl assay buffer containing 1 μM Fluo-4AM ester, 0.02% pluronic acid, and 1% BSA, The dye loading solution is then aspirated and cells are washed 3 times with 100 μl assay buffer, 30 μl of that same buffer is left in each well. Within the Fluorescent Imaging Plate Reader (FLIPR, Molecular Devices), test compounds are added to the plate in a volume of 25 μl, incubated for 5 min and finally 25 μl of agonist is added. Fluorescence is measured for each well at 1 second intervals for 5 minutes and the height of each fluorescence peak is compared to the height of the fluorescence peak induced by 70 pM Ala-6,12 orexin-A with buffer in place of antagonist. […] The intrinsic orexin receptor antagonist activity of a compound which may be used in the present invention may be determined by these assays.

rat orexin-1 receptor = target: T2, rat orexin-1 receptor (Rattus norvegicus, UniProt P56718); experiment: FLIPR Ca2+ flux assay, OX1R; assay type: cell-based; conditions: CHO cells expressing rat orexin-1 receptor; agonist 70 pM Ala-6,12 orexin-A
T2 construct: expressed in transfected cells; host or cells: CHO cells (grown under G418 selection)
T2 sequence (P56718 1-416): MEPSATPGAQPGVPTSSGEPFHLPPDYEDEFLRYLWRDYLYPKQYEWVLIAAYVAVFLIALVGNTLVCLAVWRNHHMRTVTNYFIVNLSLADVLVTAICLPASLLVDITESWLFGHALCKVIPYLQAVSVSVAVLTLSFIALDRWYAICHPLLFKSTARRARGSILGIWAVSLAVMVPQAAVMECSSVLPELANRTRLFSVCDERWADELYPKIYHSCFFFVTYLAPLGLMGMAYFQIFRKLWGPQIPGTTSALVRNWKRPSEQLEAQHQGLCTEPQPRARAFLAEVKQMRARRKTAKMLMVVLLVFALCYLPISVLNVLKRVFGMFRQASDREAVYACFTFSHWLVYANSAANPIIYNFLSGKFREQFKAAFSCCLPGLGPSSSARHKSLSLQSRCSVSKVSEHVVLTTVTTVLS
Protocol: as §1

[1] = CHO cells expressing human orexin-2 receptor, agonist 70 pM Ala-6,12 orexin-A, read-out: OX2R FLIPR

SMILES | IC50 (human orexin-2 receptor; [1]) | Fold Selective (human orexin-2 receptor) | IC50 (rat orexin-1 receptor) | selectivity between orexin-2 receptor and orexin-1 receptor (in words) (human orexin-2 receptor; comparison with diazepane compounds of U.S. Pat. No. 8,685,961) | IC50 (human orexin-2 receptor)
C[C@@H]1CCN(c2nccn3ccnc23)CCN1C(=O)c1ccccc1-n1nccn1 [Example 22, 8-[(5R)-5-methyl-4-{[2-(2H-1,2,3-triazol-2-yl)phenyl]carbonyl}-1,4-diazepan-1-yl]imidazo[1,2-a]pyrazine] | 50 nM | 200 | > 10000 nM | – | –
COc1ccnc(N2CC[C@@H](C)N(C(=O)c3ccccc3-n3nccn3)CC2)c1 [Example 2, (R)-(2-(2H-1,2,3-triazol-2-yl)phenyl)(4-(4-methoxypyridin-2-yl)-7-methyl-1,4-diazepan-1-yl)methanone] | 45 nM | 57 | 2590 nM | – | –
CCC(=O)N(C)c1cccc(N2CC[C@@H](C)N(C(=O)c3ccccc3-n3nccn3)CC2)n1 [Example 10, (R)-N-(6-(4-(2-(2H-1,2,3-triazol-2-yl)benzoyl)-5-methyl-1,4-diazepan-1-yl)pyridin-2-yl)-N-methylpropionamide] | – | – | > 10000 nM | – | –
COc1ccnc(N2CC[C@@H](C)N(C(=O)c3ccccc3C3(C#N)CC3)CC2)c1 [Example 4, 1-(2-{[(7R)-4-(4-methoxypyridin-2-yl)-7-methyl-1,4-diazepan-1-yl]carbonyl}phenyl)cyclopropane-carbonitrile] | 163 nM | 61 | > 10000 nM | – | –
COc1ccnc(N2CC[C@@H](C)N(C(=O)c3ccsc3-n3nccn3)CC2)c1 [Example 3, (R)-(2-(2H-1,2,3-triazol-2-yl)thiophen-3-yl)(4-(4-methoxypyridin-2-yl)-7-methyl-1,4-diazepan-1-yl)methanone] | 122 nM | 82 | > 10000 nM | – | –
Cc1ccc(-n2nccn2)c(C(=O)N2CCCN(c3nc4ccccc4o3)CC2)c1 [Example B-3, reference compound] | – | – | – | greater selectivity for the orexin-1 receptor than for the orexin-2 receptor | –
CCN(C(C)=O)c1cccc(N2CC[C@@H](C)N(C(=O)c3ccccc3-n3nccn3)CC2)n1 [Example 13, N-ethyl-N-{6-[(5R)-5-methyl-4-{[2-(2H-1,2,3-triazol-2-yl)phenyl]carbonyl}-1,4-diazepan-1-yl]pyridin-2-yl}acetamide] | 67 nM | 149 | > 10000 nM | – | –
C[C@@H]1CCN(c2cccc(N3CCN(C)C3=O)n2)CCN1C(=O)c1cccc(F)c1-n1nccn1 [Example 14, 1-{6-[(5R)-4-{[3-fluoro-2-(2H-1,2,3-triazol-2-yl)phenyl]carbonyl}-5-methyl-1,4-diazepan-1-yl]pyridin-2-yl}-3-methylimidazolidin-2-one] | 58 nM | 55 | 3180 nM | – | –
C[C@@H]1CCN(c2cccc(N3CCN(C)C3=O)n2)CCN1C(=O)c1ccccc1-n1nccn1 [Example 11, 1-methyl-3-{6-[(5R)-5-methyl-4-{[2-(2H-1,2,3-triazol-2-yl)phenyl]carbonyl}-1,4-diazepan-1-yl]pyridin-2-yl}imidazolidin-2-one] | 104 nM | 46 | 4760 nM | – | –
Cc1ccnc(N2CC[C@@H](C)N(C(=O)c3ccccc3-n3nccn3)CC2)c1 [Example 1, (R)-(2-(2H-1,2,3-triazol-2-yl)phenyl)(7-methyl-4-(4-methylpyridin-2-yl)-1,4-diazepan-1-yl)methanone] | – | 68 | > 10000 nM | – | 147 nM
C[C@@H]1CCN(c2cccc(C(C)(C)O)n2)CCN1C(=O)c1ccccc1-n1nccn1 [Example 20, (R)-(2-(2H-1,2,3-triazol-2-yl)phenyl)(4-(6-(2-hydroxypropan-2-yl)pyridin-2-yl)-7-methyl-1,4-diazepan-1-yl)methanone] | 32 nM | 61 | 1960 nM | – | –

More lines, in order of falling IC50 (human orexin-2 receptor; [1]), values ahead:

IC50 (human orexin-2 receptor; [1]) | Fold Selective (human orexin-2 receptor) | IC50 (rat orexin-1 receptor) | SMILES | selectivity between orexin-2 receptor and orexin-1 receptor (in words) (human orexin-2 receptor; comparison with diazepane compounds of U.S. Pat. No. 8,685,961) | IC50 (human orexin-2 receptor)
197 nM | 50 | > 10000 nM | C[C@@H]1CCN(c2cccc(N3CCN(C)C3=O)n2)CCN1C(=O)c1cc(F)ccc1-n1nccn1 [Example 16, 1-{6-[(5R)-4-{[5-fluoro-2-(2H-1,2,3-triazol-2-yl)phenyl]carbonyl}-5-methyl-1,4-diazepan-1-yl]pyridin-2-yl}-3-methylimidazolidin-2-one] | – | –
183 nM | 54 | > 10000 nM | COc1ccnc(N2CC[C@@H](C)N(C(=O)c3cccnc3OCC(F)F)CC2)c1 [Example 6, (5R)-4-{[2-(2,2-difluoroethoxy)pyridin-3-yl]carbonyl}-1-(4-methoxypyridin-2-yl)-5-methyl-1,4-diazepane] | – | –
126 nM | 79 | > 10000 nM | C[C@@H]1CCN(c2nccn3ccnc23)CCN1C(=O)c1cccnc1-n1cccn1 [Example 25, 8-[(5R)-5-methyl-4-{[2-(1H-pyrazol-1-yl)pyridin-3-yl]carbonyl}-1,4-diazepan-1-yl]imidazo[1,2-a]pyrazine] | – | –
123 nM | 81 | > 10000 nM | COc1ccnc(N2CC[C@@H](C)N(C(=O)c3ccccc3C3CCC3)CC2)c1 [Example 8, (5R)-4-[(2-cyclobutylphenyl)carbonyl]-1-(4-methoxypyridin-2-yl)-5-methyl-1,4-diazepane] | – | –
92 nM | 108 | > 10000 nM | COc1ccnc(N2CC[C@@H](C)N(C(=O)c3cccnc3OCC(F)(F)F)CC2)c1 [Example 7, (5R)-1-(4-methoxypyridin-2-yl)-5-methyl-4-{[2-(2,2,2-trifluoroethoxy)pyridin-3-yl]carbonyl}-1,4-diazepane] | – | –
85 nM | 117 | > 10000 nM | CC(=O)N(C)c1cccc(N2CC[C@@H](C)N(C(=O)c3ccccc3-n3nccn3)CC2)n1 [Example 12, N-methyl-N-{6-[(5R)-5-methyl-4-{[2-(2H-1,2,3-triazol-2-yl)phenyl]carbonyl}-1,4-diazepan-1-yl]pyridin-2-yl}acetamide] | – | –
71 nM | 128 | 9130 nM | C[C@@H]1CCN(c2cccc(N(C)C(=O)C3CC3)n2)CCN1C(=O)c1ccccc1-n1nccn1 [Example 18, N-methyl-N-{6-[(5R)-5-methyl-4-{[2-(2H-1,2,3-triazol-2-yl)phenyl]carbonyl}-1,4-diazepan-1-yl]pyridin-2-yl}cyclopropanecarboxamide] | – | –
65 nM | 153 | > 10000 nM | C[C@@H]1CCN(c2nccn3ccnc23)CCN1C(=O)c1ccccc1C1(C#N)CC1 [Example 21, (R)-1-(2-(4-(imidazo[1,2-a]pyrazin-8-yl)-7-methyl-1,4-diazepane-1-carbonyl)phenyl)cyclopropanecarbonitrile] | – | –
48 nM | 208 | > 10000 nM | CC(C)C(=O)N(C)c1cccc(N2CC[C@@H](C)N(C(=O)c3ccccc3-n3nccn3)CC2)n1 [Example 17, N,2-dimethyl-N-{6-[(5R)-5-methyl-4-{[2-(2H-1,2,3-triazol-2-yl)phenyl]carbonyl}-1,4-diazepan-1-yl]pyridin-2-yl}propanamide] | – | –
20 nM | 127 | 2550 nM | CC(O)c1cccc(N2CC[C@@H](C)N(C(=O)c3ccccc3-n3nccn3)CC2)n1 (stereo partly drawn) [Example 19, (2-(2H-1,2,3-triazol-2-yl)phenyl)((7R)-4-(6-(1-hydroxyethyl)pyridin-2-yl)-7-methyl-1,4-diazepan-1-yl)methanone] | – | –
